Tests used:
amyloid-beta fibrils = amyloid-beta fibrils (Homo sapiens, UniProt P05067); experiment: binding to amyloid-beta aggregates located on a cellulose acetate membrane; conditions: colored substances
Excerpt: FIG. 16: Binding to amyloid-beta aggregates located on a cellulose acetate membrane

huntingtin = biological target: T1, huntingtin (Homo sapiens, UniProt P42858, INS38QQQQQQQQQQQQQQQQQQQQQQQQQQQQQQ); experiment: cell culture model of Huntington's chorea: COS1 cells transfected with pTL1-CAG51, membrane filter test; assay type: cell-based; conditions: 40-44 h, membrane filter method
T1 construct: expressed in transfected cells; host or cells: COS1 cells, transient transfection
Protocol: The compounds were then tested in several cell culture models of polyglutamine diseases, inter alia Huntington's chorea. For this purpose, COS1 cells were transiently transfected with the plasmid pTL1-CAG51 already described above (Sittler, A., Walter, S., Wedemeyer, N., Hasenbank, R., Scherzinger, E., Eickhoff, H., Bates, G. P., Lehrach, H. and Wanker, E. E. (1998) Mol Cell 2, 427-36) and cultivated for 44 h in the presence of solvents or the chemical agents. Subsequently, the amount of aggregate was determined with the help of the membrane filter test as described by Heiser et al. (2002). […] The latter could be deduced from the total amount of protein in the cell lysate (FIG. 2B) which was determined with the help of cell extracts.
7-Amino-8-(2,4-dihydroxy-6-methyl-phenyl)-1,9-dimethyl-phenoxazine-3-one was then tested in a cell culture model of Huntington's chorea. For this purpose, COS1 cells were transiently transfected with the plasmid pTL1-CAG51 already described above (Sittler, A., Walter, S., Wedemeyer, N., Hasenbank, R., Scherzinger, E., Eickhoff, H., Bates, G. P., Lehrach, H. and Wanker, E. E. (1998) Mol Cell 2, 427-36) and cultivated for 40-44 h in the presence of solvents or 7-amino-8-(2,4-dihydroxy-6-methyl-phenyl)-1,9-dimethyl-phenoxazine-3-one. Subsequently, the amount of aggregate was determined with the help of the membrane filter test as described by Heiser et al. (2002). […] The latter could be deduced from the total amount of protein (FIG. 2B) which was determined with the help of cell extracts.

wild type Aβ1-42 = biological target: T2, wild type Aβ1-42 (Homo sapiens, UniProt P05067); experiment: aggregation assay with wild type Aβ1-42, membrane filter method; assay type: biochemical; conditions: peptide 15 μM, pH 7.4, 42 h, 37° C.
T2 construct: non-mutated (wild type) Aβ1-42
Protocol: Analogously, the compounds were also examined in aggregation assays with the amyloid β-peptide Aβ1-42(E22Q), which is a particularly rapidly aggregating variant of amyloid β, as well as with non-mutated (wild type) Aβ1-42. For this purpose, the peptide was incubated at a concentration of 15 μM in a phosphate buffer with a physiological pH value of 7.4 for 42 h at 37° C. and subsequently, aliquots were examined by means of the membrane filter method (Figure) or electron microscopy (Figures) as well. […] Cell viability measurements were carried out in neuronally differentiated PC12 cells to which beta-amyloid and the substances to be tested were added extracellularly in order to examine whether the compounds are able to reduce toxicity caused by amyloid-beta. After 48 h the viability of the cells (approximately corresponds to the number of vital cells) was measured.

[1] = test system: huntingtin-Exon-1 with 103 glutamines (Htt103Q-EGFP); experiment: stably transfected PC12 cell line with inducible Htt103Q-EGFP, membrane filter test; assay type: cell-based; conditions: muristerone induced, 44 h, membrane filter method
Protocol: The compounds were additionally tested in a stably transfected PC12 cell line. This cell line was transfected with an ecdysone-inducible plasmid whose N-terminal codes for huntingtin-Exon-1 marked with GFP with 103 glutamines (Htt103Q-EGFP). The Htt103Q-EGFP expression was induced with muristerone and the cells were subsequently cultivated for 44 h in the presence of solvents or the chemical agents. Subsequently, the amount of aggregate was determined with the help of the membrane filter test as described by Heiser et al. (2002). Furthermore, the amount of aggregate was determined with the help of a fluorescence measurement (data not shown). […] The latter could be deduced from the total amount of protein in the cell lysate (FIG. 2B) which was determined with the help of cell extracts.

alpha-synuclein = alpha-synuclein amyloid fibril formation, electron microscopy; assay type: biochemical; conditions: wild type protein or mutant (A53T)
Excerpt: For this purpose, the wild type protein or a mutant (A53T) was used.

[2] = biological target: T3, mutant huntingtin (GST fusion protein GST-HDQ51) (Homo sapiens, UniProt P42858, INS38QQQQQQQQQQQQQQQQQQQQQQQQQQQQQQ); experiment: in vitro aggregation of mutant huntingtin, membrane filter test; assay type: biochemical; conditions: membrane filter method
T3 construct: GST (N)
Protocol: As in the tests described by Heiser et al. (2002), the protein was used for aggregation tests to which either only solvent or solvent and the chemical agent in question was added. Aliquots of these batches were examined by means of the membrane filter test and electron microscopy.
As in the tests described by Heiser et al. (2002), the protein was used for aggregation tests to which either only solvent or solvent and 7-amino-8-(2,4-dihydroxy-6-methyl-phenyl)-1,9-dimethyl-phenoxazine-3-one was added. Aliquots of these batches were examined by means of the membrane filter test (FIG. 1B) and electron microscopy (FIGS. 1E and 1F).

Chain of amyloid-beta fibrils (P05067 672-713 limits assumed): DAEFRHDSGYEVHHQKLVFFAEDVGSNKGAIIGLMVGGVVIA
T2 sequence (P05067 672-713 limits assumed): as above
T1 sequence (P42858 with tags, fused parts or gaps with the stated changes limits assumed): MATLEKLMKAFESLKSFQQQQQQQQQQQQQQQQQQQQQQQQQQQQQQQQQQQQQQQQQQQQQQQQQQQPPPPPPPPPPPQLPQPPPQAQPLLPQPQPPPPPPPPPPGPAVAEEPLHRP
T3 sequence (P42858 with tags, fused parts or gaps with the stated changes limits assumed): as above

In the case of gamma-amino-orcein, the “direct binding to amyloid-beta fibrils” value (amyloid-beta fibrils) is reported as “bind directly to amyloid-beta fibrils”.

For C1=CC2=Nc3ccccc3OC2=CC1 [3H-phenoxazine, 3H-Phenoxazine], the “Inhibition of the aggregation of huntingtin in mammalian cells” value (huntingtin) was “Inhibition of the aggregation”.

In the case of Cc1cc(=O)cc2oc3cc(N)cc(C)c3nc1-2 [7-amino-1,9-dimethyl-phenoxazine-3-one], the “Inhibition of the aggregation of huntingtin in mammalian cells” value (huntingtin) is reported as “Inhibition of the aggregation”.

With CC1=Nc2cccc3cccc(c23)N1C [1,2-dimethyl-1H-perimidine] the “Inhibition of the aggregation of wild type Aβ1-42 (SDS-insoluble aggregates)” value (wild type Aβ1-42) was “Inhibition of the aggregation”.

CCN(CC)CCN(CC)c1nc2c(ccc3[nH]c(=O)c(C#N)cc32)s1 [2-[(2-diethylamino-ethyl)-ethyl-amino]-7-oxo-6,7-dihydro-thiazolo[4,5-f]quinoline-8-carbonitrile] was tested, and the “Inhibition of the aggregation of huntingtin (Exon-1) in mammalian cells” value (shortened to “Inhibition … (Exon-1) in mammalian cells”) [1] was “Inhibition of the aggregation”.

In the case of N#Cc1cc2c(ccc3sc(NCCN4CCCCC4)nc32)[nH]c1=O [7-Oxo-2-(2-piperidine-1-yl-ethylamino)-6,7-dihydrothiazolo[4,5-f]quinoline-8-carbonitrile], the “Inhibition … (Exon-1) in mammalian cells” value [1] is reported as “Inhibition of the aggregation”.

In the case of O=c1ccc2nc3ccccc3oc-2c1 [phenoxazin-3-one], the “Inhibition of the aggregation of huntingtin in mammalian cells” value (huntingtin) is reported as “Inhibition of the aggregation”.

In the case of alpha-amino-orceimine, the “direct binding to amyloid-beta fibrils” value (amyloid-beta fibrils) is reported as “bind directly to amyloid-beta fibrils”.

For Cc1cc(O)cc(O)c1-c1c(O)cc2oc3cc(=O)c(-c4c(C)cc(O)cc4O)c(C)c-3nc2c1C [beta-hydroxy-orcein], the “Inhibition of the aggregation of wild type Aβ1-42 (SDS-insoluble aggregates)” value (wild type Aβ1-42) was “Inhibition of the aggregation” and the “direct binding to amyloid-beta fibrils” value (amyloid-beta fibrils) was “bind directly to amyloid-beta fibrils”.

In the case of S=C1Nc2cccc3cccc(c23)N1 [1H,3H-perimidine-2-thione], the “Inhibition of the aggregation of wild type Aβ1-42 (SDS-insoluble aggregates)” value (wild type Aβ1-42) is reported as “Inhibition of the aggregation”.

For Cc1cc(=O)cc2oc3cccc(C)c3nc1-2 [1,9-dimethyl-phenoxazine-3-one], the “Inhibition of the aggregation of wild type Aβ1-42 (SDS-insoluble aggregates)” value (wild type Aβ1-42) was “Inhibition of the aggregation”.

With c1cc2c3c(cccc3c1)NC(c1c[nH]cn1)=N2 [2-(1H-imidazole-4-yl)-1H-perimidine, 2-(1H-Imidazole-4-yl)-1H-perimidine] the “Inhibition of the aggregation of wild type Aβ1-42 (SDS-insoluble aggregates)” value (wild type Aβ1-42) was “Inhibition of the aggregation”.

With Cc1ccc(C2=Nc3cccc4cccc(c34)N2)cc1 [2-p-tolyl-1H-perimidine] the “Inhibition of the aggregation of wild type Aβ1-42 (SDS-insoluble aggregates)” value (wild type Aβ1-42) was “Inhibition of the aggregation”.

With CN(C)CCCNc1nc2c(ccc3[nH]c(=O)c(C#N)cc32)s1 [2-(3-dimethylamino-propylamino)-7-oxo-6,7-dihydro-thiazolo[4,5-f]quinoline-8-carbonitrile] the “Inhibition … (Exon-1) in mammalian cells” value [1] was “Inhibition of the aggregation”.

With O=C(Nc1nccs1)c1ccc(-c2ccc(C(=O)Nc3nccs3)o2)cc1 [5-[4-(Thiazole-2-ylcarbamoyl)-phenyl]-furan-2-carboxylic acid thiazole-2-ylamide] the “Inhibition of the aggregation of huntingtin in mammalian cells” value (huntingtin) was “Inhibition of the aggregation”.

For Cc1cc(=O)cc2oc3cc(O)cc(C)c3nc1-2 [7-hydroxy-1,9-dimethyl-phenoxazine-3-one], the “Inhibition of the aggregation of wild type Aβ1-42 (SDS-insoluble aggregates)” value (wild type Aβ1-42) was “Inhibition of the aggregation”.

For N#Cc1cc2c(ccc3sc(N)nc32)[nH]c1=O [2-Amino-7-oxo-6,7-dihydro-thiazolo[4,5-f]quinoline-8-carbonitrile], the “Inhibition … (Exon-1) in mammalian cells” value [1] was “Inhibition of the aggregation”.

c1cncc(C2=Nc3cccc4cccc(c34)N2)c1 [2-pyridine-3-yl-1H-perimidine] was tested, and the “Inhibition of the aggregation of wild type Aβ1-42 (SDS-insoluble aggregates)” value (wild type Aβ1-42) was “Inhibition of the aggregation”.

With alpha-hydroxy-orcein the “direct binding to amyloid-beta fibrils” value (amyloid-beta fibrils) was “bind directly to amyloid-beta fibrils” and the “Inhibition of the aggregation of huntingtin in mammalian cells” value (huntingtin) was “Inhibition of the aggregation”.

In the case of CN(C)CCN(C=O)c1nc2c(ccc3[nH]c(=O)c(C#N)cc32)s1 [N-(8-Cyano-7-oxo-6,7-dihydro-thiazolo[4,5-f]quinoline-2-yl)-N-(2-dimethylamino-ethyl-formamide], the “Inhibition … (Exon-1) in mammalian cells” value [1] is reported as “Inhibition of the aggregation”.

With COC(=O)C1CC2=C(Cc3ccccc32)CN1c1ccco1 (centres unmarked) [2-Furan-2-yl-2,3,4,9-tetrahydro-1H-indenol[2,3-c]pyridine-3-carboxylic acid methyl ester] the “Inhibition of the aggregation of wild type Aβ1-42 (SDS-insoluble aggregates)” value (wild type Aβ1-42) was “Inhibition of the aggregation”.

O=c1ccc2nc3ccccc3oc-2c1 [phenoxazone] was tested, and the “direct binding to amyloid-beta fibrils” value (amyloid-beta fibrils) was “bind directly to amyloid-beta fibrils”.

In the case of CCOC(=O)C(CC(C)C)c1nc(-c2ccccc2)ns1 (centres unmarked) [4-methyl-2-(3-phenyl-[1,2,4]thiadiazole-5-yl)-pentanoic acid ethyl ester], the “Inhibition of the aggregation of huntingtin in mammalian cells” value (huntingtin) is reported as “Inhibition of the aggregation”.

O=C(O[C@@H]1Cc2c(O)cc(O)cc2O[C@H]1c1cc(O)c(O)c(O)c1)c1cc(O)c(O)c(O)c1 [GCG, (−)-Gallocatechin gallate] was tested, and the “Inhibition of the aggregation of alpha-synuclein (amyloid fibrils)” value (alpha-synuclein) was “Inhibition of the aggregation”.

In the case of CN(C)CCN(Cc1ccccc1)c1nc2c(ccc3[nH]c(=O)c(C#N)cc32)s1 [2-[Benzyl-(2-dimethylamino-ethyl)-amino]7-oxo-6,7-dihydro-thiazolo[4,5-f]quinoline-8-carbonitrile], the “Inhibition … (Exon-1) in mammalian cells” value [1] is reported as “Inhibition of the aggregation”.

With CN(C)CCCN(C=O)c1nc2c(ccc3[nH]c(=O)c(C#N)cc32)s1 [N-(8-Cyano-7-oxo-6,7-dihydro-thiazolo[4,5-f]quinoline-2-yl)-N-(3-dimethylamino-propyl)-formamide] the “Inhibition … (Exon-1) in mammalian cells” value [1] was “Inhibition of the aggregation”.

For CC(=O)N(CCN(C)C)c1nc2c(ccc3[nH]c(=O)c(C#N)cc32)s1 [N-(8-Cyano-7-oxo-6,7-dihydro-thiazolo[4,5-f]quinoline-2-yl)-N-(2-dimethylamino-ethyl)-acetamide], the “Inhibition … (Exon-1) in mammalian cells” value [1] was “Inhibition of the aggregation”.

With N#Cc1ccc(C2=Nc3cccc4cccc(c34)N2)cc1 [4-(1H-perimidine-2-yl)-benzonitrile] the “Inhibition of the aggregation of wild type Aβ1-42 (SDS-insoluble aggregates)” value (wild type Aβ1-42) was “Inhibition of the aggregation”.

For c1ccc2c(c1)Nc1ccccc1O2 [phenoxazine], the “direct binding to amyloid-beta fibrils” value (amyloid-beta fibrils) was “bind directly to amyloid-beta fibrils”.

CN1C(CO)=Nc2cccc3cccc1c23 [(1-methyl-1H-perimidine-2-yl)-methanol] was tested, and the “Inhibition of the aggregation of huntingtin (Exon-1) (SDS-insoluble aggregates)” value [2] was “Inhibition of the aggregation”.

In the case of Cc1cc(O)cc(O)c1-c1c(N)cc2oc3cc(=N)c(-c4c(C)cc(O)cc4O)c(C)c-3nc2c1C [beta-amino-orceimine], the “direct binding to amyloid-beta fibrils” value (amyloid-beta fibrils) is reported as “bind directly to amyloid-beta fibrils”.

With Cc1cc(O)cc(O)c1-c1c(N)cc2oc3cc(=O)c(-c4c(C)cc(O)cc4O)c(C)c-3nc2c1C [beta-amino-orcein] the “direct binding to amyloid-beta fibrils” value (amyloid-beta fibrils) was “bind directly to amyloid-beta fibrils” and the “Inhibition of the aggregation of huntingtin in mammalian cells” value (huntingtin) was “Inhibition of the aggregation”.

Source: patent US8710088B2, “Pharmaceutical and diagnostic compositions for use in the treatment and diagnosis of neurodegenerative diseases or amyloid diseases” (Max-Delbruck-Centrum fur Molekulare Medizin, priority 2004, dated 2014)
